Assay results reported in US12714722B2, “Cancer combination therapies utilizing a nicotinamide phosphoribosyltransferase inhibitor in combination with a nicotinamide adenine dinucleotide salvage pathway precursor” (Fred Hutchinson Cancer Center, priority 2019, dated 2026).
Entries after “also recorded” stand apart in the source; their conditions may differ.

How the values were obtained:
[1] = cited from earlier work
GSC 0827 = assay: Cell viability, FK866 with or without NMN, in GSC 0827 (NMRK1 low); format: cell-based, human; set-up: key to viability compared to No drug control: +: indicates similar viability compared to parental cells in ″No drug control″; −: indicates significantly diminished viability (as determined by Student's t-test); conditions: for rescue of FK866-treated cells with NMN: GSC-0827 cells, in the presence of FK866
Description: (§1) Methods. Cell culture. NSC and GSC lines were grown in NeuroCult NS-A basal medium (StemCell Technologies) supplemented with B27 (Thermo Fisher), N2 (2× stock in Advanced DMEM/F-12 (Fisher) with 25 μg/mL insulin (Sigma), 100 μg/mL apo-Transferrin (Sigma), 6 ng/mL progesterone (Sigma), 16 μg/mL putrescine (Sigma), 30 nM sodium selenite (Sigma), and 50 μg/mL bovine serum albumin (Sigma), and EGF and FGF-2 (20 ng/mL each) (Peprotech) on laminin (Sigma or Trevigen) coated polystyrene plates and passaged according to previously published protocols (Pollard et al., Cell Stem Cell. 2009; 4(6):568-80). Cells were detached from their plates using Accutase (Thermo Fisher). 293T (ATCC) cells were grown in 10% FBS/DMEM (Invitrogen).
Metabolic inhibitors screen protocol and data analysis. 230 metabolic inhibitors were screened in GSC lines (0131 and 827) and NSC CB660 cell line grown in 96-well optical bottom plates. After 24 hours, inhibitors were diluted in cell media and added to plated cells. Inhibitor concentration was based on IC 50 for the target enzymes, with 1× being the IC50 0.25× being the lower concentration and 5× being the higher concentration. Each concentration was tested in triplicate. After 48 hours, cell viability was measured via Cell-Titer-Glo. A z-score was established for each compound concentration, based on Untreated and Puromycin treated cells. Positive candidates were defined as compounds with a z-score less than that of CB660 cells. Positive candidates were rescreened to verify results.
NMN and NR Complementation studies. To verify if selectivity of NAMPT inhibition relied on downregulation of salvaging pathways, 827 cells were tested on cell viability in the presence of FK866 and the addition of NMN.

CB660 = assay: Cell viability (Cell-Titer-Glo), FK866 with or without NMN, in NSC-CB660; format: cell-based, human; set-up: key: +: indicates similar viability compared to parental cells in ″No drug control″; −: indicates significantly diminished viability (as determined by Student's t-test); conditions: CB660 cells; FK-866 alone or with NMN
GSC 0827 + NMRK1 = assay: Cell viability, FK866 with or without NMN, in GSC 0827 ectopically expressing NMRK1; format: cell-based, human; set-up: key to viability compared to No drug control: +: indicates similar viability compared to parental cells in ″No drug control″; −: indicates significantly diminished viability (as determined by Student's t-test)
Description: as §1
(§2) In addition, knockout of NMRK1 in GSC 0131 cells should replicate the effect of FK866 seen in GSC 0827 cells.
Cloning of NMRK1 ORF and NMRK1 complementation studies. […] This could be used as negative control for transfection purposes.
NMRK1 was then synthesized as a g-block based on HEK293T genomic DNA sequence:
Insertion of the purified product into vector was accomplished via Gibson assembly using NEB HiFi DNA Assembly Master Mix Kit with BamHI pre-cut pLX304 vector for expression in GBM cell lines.
Once cloned into the pLX304 backbone, the NMRK1 expressing plasmid was prepared for nucleofection and introduced into GBM 0827 cell lines. […]

GSC 0131 NMRK1 KO = assay: Cell viability, FK866 with or without NMN, in GSC 0131 with NMRK1 knockout; format: cell-based, human; set-up: key to viability compared to No drug control: +: indicates similar viability compared to parental cells in ″No drug control″; −: indicates significantly diminished viability (as determined by Student's t-test)
Description: as §1, §2
NMRK1 knockout. Using nucleofection (4D-Nucleofector; Amaxa) in combination with Cas9:sgRNA complexes (Synthego). Using the Synthego prediction software, 3 synthetic sgRNA guides were generated to give indel formation within the NMRK1 transcript.
Synthetic guides were mixed with recombinant cas9 and nucleofected using an Amaxa 96-well nucleofection system. Indel formation was highest with guides 1 and 2, and lowest with guide 3. Combining guides 1 and 2 yielded >90% indel formation. […]

GSC 0131 = assay: Cell viability, FK866 with or without NMN, in GSC 0131; format: cell-based, human; set-up: key to viability compared to No drug control: +: indicates similar viability compared to parental cells in ″No drug control″; −: indicates significantly diminished viability (as determined by Student's t-test)
[2] = system: GSCs (0131 and 0827) and control hNPC-CB660 cells; assay: Metabolic inhibitor library screen and retest, GSCs versus control neural stem cells; format: cell-based, human; conditions: 48 hrs; Cell titerglo assay; n=3
Description: Example 1. To Identify New Metabolic Vulnerabilities in Human GSCs, a Chemical Library screen was performed using […] inhibitors of metabolic enzymes in two GSCs (0131 and 0827) and control hNPC-CB660 cells. […] To further explore this phenotype, an NAD salvage substrate, NMN was used, to bypass the requirement for NAMPT and rescue cytotoxicity. NMN is a substrate for the ectoenzyme CD73 (Ratajczak J et al., Nature communications. 2016; 7:13103), which generates NR, which is transported intracellular by equilibrative nucleoside transporters. (Nikiforov et al., J Biol Chem. 2011; 286(24):21767-78.) Intracellular NR is phosphorylated by NMRK in a NAMPT-independent NAD salvage pathway.
Methods. Cell culture. […]
Metabolic inhibitors screen protocol and data analysis. […] After 48 hours, cell viability was measured via Cell-Titer-Glo. […]

In the case of `O=C(/C=C/c1cccnc1)NCCCCC1CCN(C(=O)c2ccccc2)CC1` [FK866, (E)-N-[4-(1-benzoyl-4-yl)-butyl]-3-(pyridin-3-yl) acrylamide], the “toxicity in clinical trials” value [1] is given as “dose-limiting toxicities”, the “viability compared to No drug control” value (GSC 0827; GSC 0827 cells, FK-866 alone or with NMN) is given as “−” and the “rescue of FK866-treated cells with NMN” value (GSC 0827) is given as “remained exquisitely sensitive; also recorded: cannot be overcome”. For the same compound, the “viability compared to No drug control” value (CB660) was “+”, the “viability compared to No drug control” value (GSC 0827 + NMRK1; GSC 0827 + NMRK1 cells, FK-866 alone or with NMN) was “−” and the “viability compared to No drug control” value (GSC 0131 NMRK1 KO; GSC 0131 NMRK1 KO cells, FK-866 alone or with NMN) was “−”. For the same compound, the “viability compared to No drug control” value (GSC 0131; GSC 0131 cells, FK-866 alone or with NMN) was “−” and the “selectivity of cytotoxicity for GSCs over neural stem cells” value [2] was “GSC-selective cytotoxicity; also recorded: GSC and transformation specificity”.

For `NC(=O)c1ccc[n+]([C@@H]2O[C@H](COP(=O)([O-])O)[C@@H](O)[C@H]2O)c1` [NMN, nicotinamide mononucleotide], the “rescue of FK866-treated cells with NMN” value (GSC 0827) was “not”, the “rescue of FK866-treated cells with NMN” value (GSC 0827 + NMRK1; GSC-0827 cells with ectopic NMRK1 expression, in the presence of FK866) was “sufficient to rescue; also recorded: demonstrated rescue; also recorded: allows utilization” and the “rescue of FK866-treated cells with NMN” value (GSC 0131 NMRK1 KO; GSC-0131 cells with NMRK1 knockout, in the presence of FK866) was “rescue was prevented”. The “rescue of FK866-treated cells with NMN” value (GSC 0131; GSC-0131 cells, in the presence of FK866) was “could be rescued; also recorded: sufficient to rescue; also recorded: can be complemented”.
